Measurements: patent US20260028365A1 (BIOGEN MA INC., priority 2022, published 2026)
Structures can show the parent of a compound that is named as a salt. Where two headings read alike, the source gives them in different places.

What was measured:
JH2 domain of human Tyk2 = JH2 domain of human Tyk2 (Homo sapiens (Human), UniProt P29597); test: JH2 Biochemical Assay (TR-FRET probe displacement); format: binding
Tyk2 = Tyk2 (Homo sapiens (Human), UniProt P29597); test: pSTAT4 Cell Assay (MSD, NK92 cells); format: cell-based
Chain of Tyk2 (P29597 whole entry, the tested form may be a part): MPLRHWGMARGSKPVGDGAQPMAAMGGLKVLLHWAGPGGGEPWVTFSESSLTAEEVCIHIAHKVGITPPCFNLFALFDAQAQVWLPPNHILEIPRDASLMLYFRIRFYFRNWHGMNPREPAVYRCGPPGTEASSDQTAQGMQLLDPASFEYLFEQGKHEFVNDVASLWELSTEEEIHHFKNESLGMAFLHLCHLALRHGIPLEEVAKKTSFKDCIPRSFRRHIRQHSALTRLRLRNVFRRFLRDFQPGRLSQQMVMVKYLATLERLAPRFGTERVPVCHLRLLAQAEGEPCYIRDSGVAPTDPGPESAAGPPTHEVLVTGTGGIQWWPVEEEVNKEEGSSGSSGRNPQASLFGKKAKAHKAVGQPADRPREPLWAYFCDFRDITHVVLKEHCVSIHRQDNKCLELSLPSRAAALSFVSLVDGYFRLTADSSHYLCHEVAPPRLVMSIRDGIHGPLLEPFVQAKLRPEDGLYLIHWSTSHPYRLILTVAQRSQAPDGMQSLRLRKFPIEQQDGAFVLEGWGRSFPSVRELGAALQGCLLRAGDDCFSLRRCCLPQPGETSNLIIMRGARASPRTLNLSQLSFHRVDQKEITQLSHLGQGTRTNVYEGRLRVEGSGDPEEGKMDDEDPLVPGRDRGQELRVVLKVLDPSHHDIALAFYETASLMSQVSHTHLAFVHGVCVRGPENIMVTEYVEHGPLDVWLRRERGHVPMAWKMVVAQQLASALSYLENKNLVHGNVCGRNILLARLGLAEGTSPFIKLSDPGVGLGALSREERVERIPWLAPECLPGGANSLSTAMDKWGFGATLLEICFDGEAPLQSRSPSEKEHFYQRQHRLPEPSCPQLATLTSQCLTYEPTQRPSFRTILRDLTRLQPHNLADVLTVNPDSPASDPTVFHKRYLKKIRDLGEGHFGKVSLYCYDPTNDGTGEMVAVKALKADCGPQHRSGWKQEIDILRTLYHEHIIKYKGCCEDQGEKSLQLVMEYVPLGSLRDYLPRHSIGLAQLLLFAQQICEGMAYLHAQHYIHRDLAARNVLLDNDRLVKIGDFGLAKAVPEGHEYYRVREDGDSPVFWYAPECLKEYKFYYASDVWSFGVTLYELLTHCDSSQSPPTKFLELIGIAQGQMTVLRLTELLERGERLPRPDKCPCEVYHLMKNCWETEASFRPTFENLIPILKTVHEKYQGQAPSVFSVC

[1] = JH2 domain of human Tyk2, TR-FRET probe displacement
[2] = TR-FRET probe displacement, JH2 domain
[3] = TR-FRET probe displacement, JH2 domain of human Tyk2

Chain of JH2 domain of human Tyk2 (P29597 575-876): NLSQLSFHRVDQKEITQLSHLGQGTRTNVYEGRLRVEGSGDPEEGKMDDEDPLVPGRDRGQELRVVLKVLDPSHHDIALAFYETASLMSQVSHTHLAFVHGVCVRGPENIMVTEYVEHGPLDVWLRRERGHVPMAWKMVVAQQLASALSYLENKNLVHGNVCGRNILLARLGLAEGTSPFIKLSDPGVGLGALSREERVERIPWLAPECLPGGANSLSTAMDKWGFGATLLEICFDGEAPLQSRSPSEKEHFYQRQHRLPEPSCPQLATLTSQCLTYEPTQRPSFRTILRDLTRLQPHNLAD

SMILES	IC50 (JH2 domain of human Tyk2; [1]) [nM]	IC50 (Tyk2; MSD) [nM]	IC50 (JH2 domain of human Tyk2; [2]) [nM]	IC50 (Tyk2) [nM]	IC50 (JH2 domain of human Tyk2; [3]) [nM]
CC(=O)Nc1cc(Nc2cc(C)nc(C(C)(F)F)n2)c(-c2cn(C)nn2)cn1 [Example 607, N-(4-((2-(1,1-difluoroethyl)-6-methylpyrimidin-4-yl)amino)-5-(1-methyl-1H-1,2,3-triazol-4-yl)pyridin-2-yl)acetamide]	≤ 10	≤ 10	–	–	–
CC(=O)Nc1cc(Nc2cc(C)nc(C(C)(F)F)n2)c(-c2coc(C)n2)cn1 [Example 578, N-(4-((2-(1,1-difluoroethyl)-6-methylpyrimidin-4-yl)amino)-5-(2-methyloxazol-4-yl)pyridin-2-yl)acetamide]	≤ 10	≤ 10	–	–	–
COc1cnc(NC(C)=O)cc1Nc1cc(OC2CCC2)nc(C(C)(F)F)n1 [Example 455, N-(4-((6-cyclobutoxy-2-(1,1-difluoroethyl)pyrimidin-4-yl)amino)-5-methoxypyridin-2-yl)acetamide trifluoroacetate]	≤ 10	≤ 10	–	–	–
CC(=O)Nc1cc(Nc2cc(C)nc(C(C)(F)F)n2)c(-c2ccc(CN3CCOCC3)cn2)cn1 [Example 649, N-(4′-((2-(1,1-difluoroethyl)-6-methylpyrimidin-4-yl)amino)-5-(morpholinomethyl)-[2,3′-bipyridin]-6′-yl)acetamide]	≤ 10	≤ 10	–	–	–
CC(=O)Nc1cc(Nc2ccnc(C(C)(F)F)n2)c(-c2ccc(CN3C[C@H]4C[C@@H]3CO4)cn2)cn1 (racemic) [Example 884, rac-N-(5-(((1R,4R)-2-oxa-5-azabicyclo[2.2.1]heptan-5-yl)methyl)-4′-((2-(1,1-difluoroethyl)pyrimidin-4-yl)amino)-[2,3′-bipyridin]-6′-yl)acetamide]	–	–	≤ 10	≤ 10	–
COc1cnc(NC(C)=O)cc1Nc1cc(-c2cnn(C3CC3)c2)nc(C(C)(F)F)n1 [Example 376, N-(4-((6-(1-cyclopropyl-1H-pyrazol-4-yl)-2-(1,1-difluoroethyl)pyrimidin-4-yl)amino)-5-methoxypyridin-2-yl)acetamide]	10 to 100	10 to 100	–	–	–
CCc1cc(Nc2cc(NC(C)=O)ncc2-c2nnc(C)o2)nc(C(C)(F)F)n1 [Example 168, N-(4-((2-(1,1-difluoroethyl)-6-ethylpyrimidin-4-yl)amino)-5-(5-methyl-1,3,4-oxadiazol-2-yl)pyridin-2-yl)acetamide]	–	10 to 100	–	–	≤ 10
COC(C)(C)c1cnc(-c2cnc(NC(C)=O)cc2Nc2ccnc(C(C)(F)F)n2)cn1 [Example 896, N-(4-((2-(1,1-difluoroethyl)pyrimidin-4-yl)amino)-5-(5-(2-methoxypropan-2-yl)pyrazin-2-yl)pyridin-2-yl)acetamide]	–	–	≤ 10	10 to 100	–
CC(=O)Nc1cc(Nc2cc(C)nc(C(C)(F)F)n2)c(-c2cc3n(n2)CCN(C)C3=O)cn1 [Example 541, N-(4-((2-(1,1-difluoroethyl)-6-methylpyrimidin-4-yl)amino)-5-(5-methyl-4-oxO4,5,6,7-tetrahydropyrazolo[1,5-a]pyrazin-2-yl)pyridin-2-yl)acetamide]	≤ 10	10 to 100	–	–	–
CCc1cc(Nc2cc(NC(C)=O)ncc2-c2nc(C)no2)nc(C(C)(F)F)n1 [Example 281, N-(4-((2-(1,1-difluoroethyl)-6-ethylpyrimidin-4-yl)amino)-5-(3-methyl-1,2,4-oxadiazol-5-yl)pyridin-2-yl)acetamide]	–	10 to 100	–	–	≤ 10
CC(=O)Nc1cc(Nc2cc(C)nc(C(C)(F)F)n2)c(-c2ccnc(C(C)(F)F)n2)cn1 [Example 837, N-(4-((2-(1,1-difluoroethyl)-6-methylpyrimidin-4-yl)amino)-5-(2-(1,1-difluoroethyl)pyrimidin-4-yl)pyridin-2-yl)acetamide]	–	–	≤ 10	≤ 10	–
CC(=O)Nc1cc(Nc2ccnc(C(C)(F)F)n2)c(-c2cncc(CC#N)n2)cn1 [Example 688, N-(5-(6-(cyanomethyl)pyrazin-2-yl)-4-((2-(1,1-difluoroethyl)pyrimidin-4-yl)amino)pyridin-2-yl)acetamide]	≤ 10	100 to 1000	–	–	–
COCCn1ncc(-c2cnc(NC(C)=O)cc2Nc2cc(OC3CC3)nc(C(C)(F)F)n2)n1 [Example 587, N-(4-((6-cyclopropoxy-2-(1,1-difluoroethyl)pyrimidin-4-yl)amino)-5-(2-(2-methoxyethyl)-2H-1,2,3-triazol-4-yl)pyridin-2-yl)acetamide]	≤ 10	≤ 10	–	–	–
CCOc1cnc(NC(C)=O)cc1Nc1ccc(-c2ccn(C)n2)c(OC)n1 [Example 491, N-(5-ethoxy-4-((6-methoxy-5-(1-methyl-1H-pyrazol-3-yl)pyridin-2-yl)amino)pyridin-2-yl)acetamide]	10 to 100	≥ 1000	–	–	–
COc1cc(COc2cnc(NC(C)=O)cc2Nc2cc(C)nc(C(C)(F)F)n2)ncn1 [Example 346, N-(4-((2-(1,1-difluoroethyl)-6-methylpyrimidin-4-yl)amino)-5-((6-methoxypyrimidin-4-yl)methoxy)pyridin-2-yl)acetamide]	–	10 to 100	–	–	≤ 10
COc1nc(-c2cnc(NC(C)=O)cc2Nc2ccnc(C(C)(F)F)n2)cs1 [Example 712, N-(4-((2-(1,1-difluoroethyl)pyrimidin-4-yl)amino)-5-(2-methoxythiazol-4-yl)pyridin-2-yl)acetamide]	≤ 10	≤ 10	–	–	–

SMILES	IC50 (JH2 domain of human Tyk2; [1]) [nM]	IC50 (Tyk2; MSD) [nM]	IC50 (JH2 domain of human Tyk2; [2]) [nM]	IC50 (Tyk2) [nM]	IC50 (JH2 domain of human Tyk2; [3]) [nM]
CC(=O)Nc1cc(Nc2cc(C)nc(C(C)(F)F)n2)c(OC[C@@H]2CCC(=O)N2)cn1 [Example 500, (S)-N-(4-((2-(1,1-difluoroethyl)-6-methylpyrimidin-4-yl)amino)-5-((5-oxopyrrolidin-2-yl)methoxy)pyridin-2-yl)acetamide]	≤ 10	100 to 1000	–	–	–
COc1cc(-c2cnc(NC(C)=O)cc2Nc2ccnc(C(C)(F)F)n2)nc(OC)n1 [Example 687, N-(4-((2-(1,1-difluoroethyl)pyrimidin-4-yl)amino)-5-(2,6-dimethoxypyrimidin-4-yl)pyridin-2-yl)acetamide]	≤ 10	10 to 100	–	–	–
CC(=O)Nc1cc(Nc2ccnc(C(C)(F)F)n2)c(-n2cc(C)cn2)cn1 [Example 728, N-(4-((2-(1,1-difluoroethyl)pyrimidin-4-yl)amino)-5-(4-methyl-1H-pyrazol-1-yl)pyridin-2-yl)acetamide]	≤ 10	10 to 100	–	–	–
CC(=O)Nc1cc(Nc2ccnc(C(C)(F)F)n2)c(-c2ccc(N(C)C)nn2)cn1 [Example 841, N-(4-((2-(1,1-difluoroethyl)pyrimidin-4-yl)amino)-5-(6-(dimethylamino)pyridazin-3-yl)pyridin-2-yl)acetamide]	–	–	≤ 10	≤ 10	–
COCCOc1cc(Nc2cc(NC(C)=O)ncc2-c2ccncn2)nc(C(C)(F)F)n1 [Example 585, N-(4-((2-(1,1-difluoroethyl)-6-(2-methoxyethoxy)pyrimidin-4-yl)amino)-5-(pyrimidin-4-yl)pyridin-2-yl)acetamide]	≤ 10	≤ 10	–	–	–
CC(=O)Nc1cc(Nc2cc(OC3CC3)nc(C(C)(F)F)n2)c(OC(F)(F)F)cn1 [Example 93, N-(4-((6-cyclopropoxy-2-(1,1-difluoroethyl)pyrimidin-4-yl)amino)-5-(trifluoromethoxy)pyridin-2-yl)acetamide]	–	100 to 1000	–	–	≤ 10
CC(=O)Nc1cc(Nc2cc(C)nc(C(C)(F)F)n2)c(-c2nnc(C(C)(C)C)s2)cn1 [Example 611, N-(5-(5-(tert-butyl)-1,3,4-thiadiazol-2-yl)-4-((2-(1,1-difluoroethyl)-6-methylpyrimidin-4-yl)amino)pyridin-2-yl)acetamide]	≤ 10	≤ 10	–	–	–
CC(=O)Nc1cc(Nc2cc(C)nc(C(C)(F)F)n2)c(-c2cc(OC(C)C)ncn2)cn1 [Example 242, N-(4-((2-(1,1-difluoroethyl)-6-methylpyrimidin-4-yl)amino)-5-(6-isopropoxypyrimidin-4-yl)pyridin-2-yl)acetamide]	–	10 to 100	–	–	≤ 10
CC(=O)Nc1cc(Nc2ccnc(C(C)(F)F)n2)c(-c2ccn(C)n2)cn1 [Example 202, N-(4-((2-(1,1-difluoroethyl)pyrimidin-4-yl)amino)-5-(1-methyl-1H-pyrazol-3-yl)pyridin-2-yl)acetamide]	–	≤ 10	–	–	≤ 10
CC(=O)Nc1cc(Nc2cc(C)nc(C(C)(F)F)n2)c(OCc2nc(C)ns2)cn1 [Example 343, N-(4-((2-(1,1-difluoroethyl)-6-methylpyrimidin-4-yl)amino)-5-((3-methyl-1,2,4-thiadiazol-5-yl)methoxy)pyridin-2-yl)acetamide]	–	10 to 100	–	–	≤ 10
CC(=O)Nc1cc(Nc2ccnc(C(C)(F)F)n2)c(-c2cncc(C#N)n2)cn1 [Example 766, N-(5-(6-cyanopyrazin-2-yl)-4-((2-(1,1-difluoroethyl)pyrimidin-4-yl)amino)pyridin-2-yl)acetamide]	–	–	≤ 10	100 to 1000	–
CC(=O)Nc1cc(Nc2cc(C)nc(C(C)(F)F)n2)c(-c2cccc(C(C)(C)C#N)n2)cn1 [Example 654, N-(6-(2-cyanopropan-2-yl)-4′-((2-(1,1-difluoroethyl)-6-methylpyrimidin-4-yl)amino)-[2,3′-bipyridin]-6′-yl)acetamide]	≤ 10	≤ 10	–	–	–
CCOc1cnc(NC(C)=O)cc1Nc1cc(OC2CC(C)C2)nc(C(C)(F)F)n1 (centres unmarked) [Example 464, N-(4-((2-(1,1-difluoroethyl)-6-(3-methylcyclobutoxy)pyrimidin-4-yl)amino)-5-ethoxypyridin-2-yl)acetamide]	≤ 10	≤ 10	–	–	–
CC(=O)Nc1cc(Nc2cc(C)nc(C(C)(F)F)n2)c(-c2cnn(C(C)C)n2)cn1 [Example 610, N-(4-((2-(1,1-difluoroethyl)-6-methylpyrimidin-4-yl)amino)-5-(2-isopropyl-2H-1,2,3-triazol-4-yl)pyridin-2-yl)acetamide]	≤ 10	≤ 10	–	–	–
CC(=O)Nc1cc(Nc2cc(C(C)C)nc(C(C)(F)F)n2)c(-c2ncc(F)cn2)cn1 [Example 184, N-(4-((2-(1,1-difluoroethyl)-6-isopropylpyrimidin-4-yl)amino)-5-(5-fluoropyrimidin-2-yl)pyridin-2-yl)acetamide]	–	10 to 100	–	–	≤ 10
